Measured values taken from publication PMC11054303, “Design and Synthesis of Novel N-Benzylidene Derivatives of 3-Amino-4-imino-3,5-dihydro-4H-chromeno[2,3-d]pyrimidine under Microwave, In Silico ADME Predictions, In Vitro Antitumoral Activities and In Vivo Toxicity” (Pharmaceuticals, 2024).

What was measured:
T47D breast cancer cells = test system: T47D breast cancer cells; design: method as in PMID 15542776; conditions: cited from earlier work
PC3 = test: Antiproliferative assay, PC3; type: cell-based, human; conditions: for IC50: Homo sapiens, PC-3, 48 h incubation, average of three assays, standard error ± 0.5 μM; for Selectivity Index (SI) PC3: SI = IC50 fibroblasts/IC50 on PC3
Method: (§1) The potential antiproliferative activity of these novel 3-(N-phenylmethyliden)amino-4-imino-3,5-dihydro-4H-chromeno[2,3-d]pyrimidine 10(a-i) and 10-(N-phenylmethyliden)amino-11-imino-11H-naphto[1′,2′:5,6]pyrano[2,3-d]pyrimidine 10(j-l) was evaluated in a panel of eight tumoral cell lines and in diploid skin fibroblasts used as normal cell lines for control. For these antitumor assays, chosen cell lines represent diverse types of human cancer, which are, respectively, human hepatocellular carcinoma (Huh7 D12), human colon adenocarcinoma (Caco2), human breast adenocarcinoma (MDA-MB231), MDA-MB468 for human breast carcinoma which correspond to the Triple Negative Breast Cancer (TNBC), human colon carcinoma (HCT116), PC3 as cell line initiated from bone metastasis of grade IV prostatic adenocarcinoma from a person, MCF7 as breast cancer line isolated from a person and PANC1, as human pancreatic cancer cell line. The potential antiproliferative activity was preliminarily evaluated in vitro at a 25 μM single dose.
(§2) The IC50 was calculated from the full dose-response curve and used as a parameter for the antiproliferative activity of the new compounds.
(§3) Skin diploid fibroblastic cells were provided by BIOPREDIC International Company (Rennes, France). Huh-7D12 (Ref ECACC: 01042712), Caco2 (Ref ECACC: 86010202), MDA-MB-231 (Ref ECACC: 92020424), MDA-MB-468, HCT-116 (Ref ECACC: 91091005), PC3 (Ref ECACC: 90112714), and MCF7 cell lines were obtained from the ECACC collection. PANC1 cell lines, a generous gift of LBAI Inserm 1227 (Brest, France). Cells were grown according to ECACC recommendations in DMEM for Huh-D12, MDA-MB-231, MDA-MB-468 and fibroblast, in EMEM for Caco2, in McCoy’s for HCT-116 and RPMI for PC3 at 37 °C and 5% CO2. All culture media with 10% of FBS, 1% of penicillin-streptomycin and 2 mM glutamine.
(§4) Chemicals were solubilized in DMSO at a concentration of 10 mM (stock solution) and diluted in a culture medium to the desired final concentrations. […] The toxicity test of the chemicals on these cells was as follows: 2 × 10^3 cells for HCT-116 cells or 4 × 10^3 for the other cells were seeded in 96-multi-well plates in triplicate and left for 24 h for attachment, spreading and growing. Then, cells were exposed for 48 h to increasing concentrations of chemicals, ranging from 0.1 μM to 25 μM, in a final volume of 120 μL of culture medium. After 48 h of treatment, cells were washed in PBS and fixed in a cooled 90% ethanol/5% acetic acid solution for 20 min. The nuclei were stained with Hoechst 3342 (B2261 Merck Sigma-Aldrich) and counted. Image acquisition and analysis were performed using automated imaging analysis with a Cellomics Arrayscan VTI/HCS Reader (Thermo/Scientific, Waltham, MA, USA). The survival percentages were calculated as the percentage of cell number after chemical treatment over cell number after DMSO treatment. The IC50 was graphically determined.

MCF7 = test: Antiproliferative assay, MCF7; type: cell-based, human; conditions: for IC50: Homo sapiens, MCF7, 48 h incubation, average of three assays, standard error ± 0.5 μM; for Selectivity Index (SI) MCF7: SI = IC50 fibroblasts/IC50 on MCF7
Method: as §1, §2, §3, §4

Fibroblasts = test: Antiproliferative assay, diploid skin fibroblasts (normal cells); type: cell-based; conditions: for IC50: Fibroblast, 48 h incubation, average of three assays, standard error ± 0.5 μM
Method: as §1, §2, §3, §4

PANC1 = test: Antiproliferative assay, PANC1; type: cell-based, human; conditions: for IC50: Homo sapiens, PANC-1, 48 h incubation, average of three assays, standard error ± 0.5 μM; for Selectivity Index (SI) PANC1: SI = IC50 fibroblasts/IC50 on PANC1
Method: as §1, §2, §3, §4

HCT 116 = test: Antiproliferative assay, HCT 116; type: cell-based, human; conditions: for IC50: Homo sapiens, HCT-116, 48 h incubation, average of three assays, standard error ± 0.5 μM; for Selectivity Index (SI) HCT 116: SI = IC50 fibroblasts/IC50 on HCT 116
Method: as §1, §2, §3, §4

Caco2 = test: Antiproliferative assay, Caco2; type: cell-based, human; conditions: Homo sapiens, Caco-2; 48 h incubation; average of three assays, standard error ± 0.5 μM
Method: as §1, §2, §3, §4

[1] = Antiproliferative assay, Caco2; type: cell-based, human; conditions: human, Caco-2; SI = IC50 fibroblasts/IC50 on Caco2; read-out: Selectivity Index (SI) Caco2
Method: as §1, §2, §3, §4

MDA MB468 = test: Antiproliferative assay, MDA MB468; type: cell-based, human; conditions: for IC50: Homo sapiens, MDA-MB-468, 48 h incubation, average of three assays, standard error ± 0.5 μM; for Selectivity Index (SI) MDA MB468: SI = IC50 fibroblasts/IC50 on MDA MB468
Method: as §1, §2, §3, §4

MDA MB231 = test: Antiproliferative assay, MDA MB231; type: cell-based, human; conditions: for IC50: Homo sapiens, MDA-MB-231, 48 h incubation, average of three assays, standard error ± 0.5 μM; for Selectivity Index (SI) MDA MB231: SI = IC50 fibroblasts/IC50 on MDA MB231
Method: as §1, §2, §3, §4

Huh7 D12 = test: Antiproliferative assay, Huh7 D12; type: cell-based, human; conditions: for IC50: Homo sapiens, Huh-7D12, 48 h incubation, average of three assays, standard error ± 0.5 μM; for Selectivity Index (SI) Huh7 D12: SI = IC50 fibroblasts/IC50 on Huh7 D12
Method: as §1, §2, §3, §4

tumor cell lines = test: Antiproliferative assay, panel of tumoral cell lines; type: cell-based; conditions: Homo sapiens, 48 h, summary over tumoral cell lines of Table 3, 48 h; read-out: IC50 on tumor cell lines (span over the panel)
Method: as §1, §2, §3, §4

[2] = test system: zebrafish Danio rerio embryos; test: Zebrafish embryo toxicity assay (Zebratox, FET); conditions: low doses
Method: (§5) Fertilized eggs at 24–48 h post-fertilization (hpf) were selected and transferred to a 96-well plate (1 embryo/well). […] DMSO (0.6%) was used as vehicle control for the test compounds. The exposure duration continued up to 72 hpf because it is the endpoint of embryonic development [41]. The dead embryos were eliminated, and the fertilized eggs were imaged at 0, 24, 48 and 72 hpf.
(§6) Eggs were collected 2 h post-fertilization (hpf) and kept in glass Petri dishes containing water for subsequent examination under a binocular microscope to confirm fertilization. […] Chemical treatments were performed by adding DMSO alone (negative control), or test molecule. These experiments were performed in four technical replicates.
(§7) The experiments were performed using a Zeiss inverted fluorescent microscope (Observer Z1). The zebrafish toxicological test (Zebratox) was realized as follows: the 24 h post-fertilization embryos were arrayed by hand with one embryo per well in black-walled 96-well microplates for fluorescence assays (Perkin Elmer, Waltham, MA, USA). The embryos were treated before hatching from 0 to 72 h post-fertilization. The 20 mM DMSO stock chemicals were diluted in fish water and added to the wells at final concentrations from 0.0 2µM to 5 μM. The negative control (0.25% DMSO) was added to each replicate plate. The experiments were realized in triplicate in three independent plates. […] The zebrafish fertilized eggs were provided by the ImPACcell-Biosit Zebrafish facilities (Rennes, France).

[3] = test system: zebrafish Danio rerio embryos; test: Angiogenesis of vessels in mCherry transgenic zebrafish embryos; type: in vivo; conditions: 1.67 μM, 72 hpf
Source text: Another interest of zebrafish Danio rerio is the possibility to deeply evaluate the effects of angiogenic compounds. In our model, the formation of most vessels is complete, the circulation is present, and the heart is beating after 28 hpf of development. Angiogenesis begins in the somites and in the anterior portion of the embryos. Many zebrafish blood vessels form by angiogenic sprouting and appear to require the same proteins required for blood vessel growth in mammals. By using the mCherry line transgenic zebrafish, it is possible to analyze the direct effect of a compound on the angiogenesis of dorsal vessels. Zebrafish embryos can survive up to a week without an intact circulatory system because defective vessel formation has no immediate lethal effect.
These experiments were performed in four technical replicates.

[4] = test system: zebrafish Danio rerio embryos; conditions: transgenic line Tg(kdrl:Hsa.HRAS-mCherry)s896, zebrafish (Danio rerio), in vivo, 72 hpf, 1.67 μM
Method: as §5, §6, §7

Row | Compound | IC50 (PC3) | Selectivity Index (SI) PC3 (PC3) | IC50 (MCF7) | Selectivity Index (SI) MCF7 (MCF7) | IC50 (Fibroblasts) | IC50 (PANC1) | IC50 (HCT 116) | Selectivity Index (SI) HCT 116 (HCT 116) | IC50 (Caco2) | selectivity ratio at 48 h [1] | IC50 (MDA MB468) | Selectivity Index (SI) MDA MB468 (MDA MB468) | IC50 (MDA MB231) | Selectivity Index (SI) MDA MB231 (MDA MB231) | IC50 (Huh7 D12) | Selectivity Index (SI) Huh7 D12 (Huh7 D12) | IC50 (tumor cell lines) | melting point | further results
1 | 2-amino-4-(3-bromo-4,5-dimethoxyphenyl)-4H-chromene-3-carbonitrile [MX 58151] | – | – | – | – | – | – | – | – | – | – | – | – | – | – | – | – | – | – | GI50 (T47D breast cancer cells): 0.037 µM
2 | N=c1c2c(ncn1/N=C/c1ccccc1O)Oc1ccccc1C2 [10e, (3E) 3-N-(2-Hydroxyphenylmethylidene)amino-4-imino-3,5-dihydro-4H-chromeno[2,3-d]pyrimidine] | 0.15 µM | 10.67 | 1.7 µM | 0.94 | 1.6 µM | 2.2 µM | 0.3 µM | 5.33 | 2 µM | 0.8 | 2.5 µM | 0.64 | 1.5 µM | 1.07 | 1.7 µM | 0.94 | 1 to 25 µM | – | effect on fibroblasts (healthy skin cell), in words (Fibroblasts): cytotoxic on fibroblasts; Selectivity Index (SI) PANC1 (PANC1): 0.73
3 | N=c1c2c(ncn1/N=C/c1ccccc1)Oc1ccccc1C2 [10f, (3E) 3-N-(Phenylmethylidene)amino-4-imino-3,5-dihydro-4H-chromeno[2,3-d]pyrimidine] | > 25 µM | – | > 25 µM | – | > 25 µM | > 25 µM | 10 µM | > 2.5 | > 25 µM | – | > 25 µM | – | > 25 µM | – | > 25 µM | – | > 25 µM | 232 to 234 °C | –
4 | COc1cccc2c1Oc1ncn(/N=C/c3ccccc3)c(=N)c1C2 [10i, (3E) 3-N-(Phenylmethylidene)amino-4-imino-9-methoxy-3,5-dihydro-4H-chromeno[2,3-d]pyrimidine] | 0.77 µM | > 32.5 | 0.45 µM | > 55.6 | > 25 µM | – | 0.62 µM | > 40.3 | 0.8 µM | > 31.3 | 0.3 µM | > 83.3 | 0.6 µM | > 41.7 | 0.49 µM | > 51.0 | – | 252 to 254 °C | –
5 | N=c1c2c(ncn1/N=C/c1ccccc1O)Oc1ccc3ccccc3c1C2 [10k, (10E) 10-N-(2-Hydroxyphenylmethylidene)amino-11-imino-11H-naphto[1′,2′:5,6]pyrano[2,3-d]pyrimidine] | 0.4 µM | 3.75 | 1.2 µM | 1.25 | 1.5 µM | 1.6 µM | 0.6 µM | 2.5 | 1.2 µM | 1.25 | 1.8 µM | 0.83 | 1.1 µM | 1.34 | 1.5 µM | 1 | 1 to 25 µM | – | effect on fibroblasts (healthy skin cell), in words (Fibroblasts): cytotoxic on fibroblasts; Selectivity Index (SI) PANC1 (PANC1): 0.94
6 | N=c1c2c(ncn1/N=C/c1ccccc1)Oc1ccc3ccccc3c1C2 [10l, (10E) 10-N-(Phenylmethylidene)amino-11-imino-11H-naphto[1′,2′:5,6]pyrano[2,3-d]pyrimidine] | > 25 µM | – | > 25 µM | – | > 25 µM | – | > 25 µM | – | > 25 µM | – | > 25 µM | – | > 25 µM | – | > 25 µM | – | > 25 µM | ≥ 260 °C | –
7 | CNC(=O)c1cc(Oc2ccc(NC(=O)Nc3ccc(Cl)c(C(F)(F)F)c3)cc2)ccn1 [sorafenib, reference compound] | – | – | – | – | – | – | – | – | – | – | – | – | – | – | – | – | – | – | development of the embryos ([2]; 24 hpf): normal development; morphological development of the embryos ([2]; 48 hpf): morphological development is delayed; effect on angiogenesis of the vessels [3]: absence of angiogenesis of the vessels; effect on angiogenesis of the vessels ([3]; listed as Sorafenib): inhibition of the dorsal vessel vascularization; toxicity, fraction of the embryos [4]: 4/5
